According to patent US6737383B1, “Herbicidal oxadiazolidines” (priority 1999, dated 2004):

Assays:
cocklebur = assay: Test B pre/postemergence cocklebur; type: in vivo, Xanthium strumarium
In short: (§1)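 Test chemicals in a non-phytotoxic solvent mixture with surfactant were sprayed preemergence onto planted seeds and postemergence onto plants 2 to 18 cm tall (1- to 4-leaf stage). After twelve to sixteen days in a greenhouse, injury was visually rated against untreated controls from 0 (no effect) to 10 (complete control).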

corn = assay: Test B pre/postemergence corn; type: in vivo, Zea mays
In short: as §1

wheat = assay: Test B pre/postemergence wheat; type: in vivo, Triticum aestivum
In short: as §1

duck salad = assay: Test B flood test duck salad; type: in vivo, Heteranthera limosa
In short: (§2)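 Flood test on plants grown to the 2-leaf stage; treated plants kept in greenhouse twelve to sixteen days, then visually rated against controls on a 0 (no effect) to 10 (complete control) scale.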

sugar beet = assay: Test B pre/postemergence sugar beet; type: in vivo, Beta vulgaris
In short: as §1

giant foxtail = assay: Test B pre/postemergence giant foxtail; type: in vivo, Setaria faberii
In short: as §1

rape = assay: Test B pre/postemergence rape; type: in vivo, Brassica napus
In short: as §1

rice = assay: Test B flood test rice; type: in vivo, Oryza sativa
In short: as §2

surinam grass = assay: Test B pre/postemergence surinam grass; type: in vivo, Brachiaria decumbens
In short: as §1

velvetleaf = assay: Test B pre/postemergence velvetleaf; type: in vivo, Abutilon theophrasti
In short: as §1

wild oat = assay: Test B pre/postemergence wild oat; type: in vivo, Avena fatua
In short: as §1

soybean = assay: Test B pre/postemergence soybean; type: in vivo, Glycine max
In short: as §1

pigweed = assay: Test B pre/postemergence pigweed; type: in vivo, Amaranthus retroflexus
In short: as §1

purple nutsedge = assay: Test B pre/postemergence purple nutsedge; type: in vivo, Cyperus rotundus
In short: as §1

smallflower flatsedge = assay: Test B flood test smallflower flatsedge; type: in vivo, Cyperus difformis
In short: as §2

bedstraw = assay: Test B pre/postemergence bedstraw; type: in vivo, Galium aparine; conditions: Postemergence
In short: as §1

[1] = Postemergence, Rate 125 g/ha, scale 0 to 10, 0 is no effect, 10 is complete control
[2] = Preemergence, Rate 62 g/ha, scale of 0 to 10 where 0 is no effect and 10 is complete control
[3] = Preemergence, Rate 250 g/ha, scale of 0 to 10 where 0 is no effect and 10 is complete control
[4] = Preemergence, Rate 500 g/ha, scale of 0 to 10 where 0 is no effect and 10 is complete control
[5] = Rate 62 g/ha, Postemergence, scale 0 to 10 (0 no effect, 10 complete control)
[6] = Rate 250 g/ha, Postemergence, scale of 0 to 10 where 0 is no effect and 10 is complete control
[7] = Rate 500 g/ha, Postemergence, scale 0 to 10, 0 no effect, 10 complete control
[8] = Rate 62 g/ha, headed Pre-emergence (flood test species), scale 0 to 10 (0 no effect, 10 complete control)
[9] = Rate 125 g/ha, Pre-emergence, flood test species, scale 0 to 10 where 0 is no effect and 10 is complete control
[10] = Rate 250 g/ha, Pre-emergence, flood-test species, scale 0 to 10, 0 is no effect, 10 is complete control
[11] = Rate 500 g/ha, Pre-emergence, flood test species, scale 0 to 10 (0 no effect, 10 complete control)

SMILES: CC(C)N(C(=O)n1oc(=O)n(C2CC3CCC2C3)c1=O)c1ccc(F)cc1F (stereo not shown) [Compound 326]
- Plant response rating, Cocklebur (cocklebur; [1]): 0
- Cocklebur plant response rating (cocklebur; [2]): 0
- Cocklebur plant response rating (0 to 10 scale) (cocklebur; Preemergence, Rate 125 g/ha): 0
- Cocklebur plant response rating (cocklebur; [3]): 0
- Cocklebur plant response rating (cocklebur; [4]): 0
- Cocklebur plant response rating (cocklebur; [5]): 0
- Plant response rating, Cocklebur (cocklebur; [6]): 0
- Plant response rating, Cocklebur (cocklebur; [7]): 2
- Plant response rating, Corn (corn; [1]): 0
- Corn plant response rating (corn; [2]): 0
- Corn plant response rating (0 to 10 scale) (corn; Preemergence, Rate 125 g/ha): 0
- Corn plant response rating (corn; [3]): 0
- Corn plant response rating (corn; [4]): 2
- Corn plant response rating (corn; [5]): 0
- Plant response rating, Corn (corn; [6]): 0
- Plant response rating, Corn (corn; [7]): 0
- Plant response rating, Wheat (wheat; [1]): 0
- Wheat plant response rating (wheat; [2]): 0
- Wheat plant response rating (0 to 10 scale) (wheat; Preemergence, Rate 125 g/ha): 0
- Wheat plant response rating (wheat; [3]): 0
- Wheat plant response rating (wheat; [4]): 2
- Wheat plant response rating (wheat; [5]): 0
- Plant response rating, Wheat (wheat; [6]): 0
- Plant response rating, Wheat (wheat; [7]): 0
- Ducksalad plant response rating (duck salad; [8]): 0
- Ducksalad plant response rating (duck salad; [9]): 0
- Ducksalad plant response rating (duck salad; [10]): 0
- Ducksalad plant response rating (duck salad; [11]): 0
- Plant response rating, Sugarbeets (sugar beet; [1]): 0
- Sugarbeets plant response rating (sugar beet; [2]): 0
- Sugarbeets plant response rating (0 to 10 scale) (sugar beet; Preemergence, Rate 125 g/ha): 0
- Sugarbeets plant response rating (sugar beet; [3]): 0
- Sugarbeets plant response rating (sugar beet; [4]): 2
- Sugarbeets plant response rating (sugar beet; [5]): 0
- Plant response rating, Sugarbeets (sugar beet; [6]): 0
- Plant response rating, Sugarbeets (sugar beet; [7]): 0
- Plant response rating, Giant foxtail (giant foxtail; [1]): 0
- Giant foxtail plant response rating (giant foxtail; [2]): 0
- Giant foxtail plant response rating (0 to 10 scale) (giant foxtail; Preemergence, Rate 125 g/ha): 2
- Giant foxtail plant response rating (giant foxtail; [3]): 8
- Giant foxtail plant response rating (giant foxtail; [4]): 9
- Giant foxtail plant response rating (giant foxtail; [5]): 0
- Plant response rating, Giant foxtail (giant foxtail; [6]): 0
- Plant response rating, Giant foxtail (giant foxtail; [7]): 2
- Plant response rating, Rape (rape; [1]): 0
- Rape plant response rating (rape; [2]): 0
- Rape plant response rating (0 to 10 scale) (rape; Preemergence, Rate 125 g/ha): 0
- Rape plant response rating (rape; [3]): 0
- Rape plant response rating (rape; [4]): 1
- Rape plant response rating (rape; [5]): 0
- Plant response rating, Rape (rape; [6]): 1
- Plant response rating, Rape (rape; [7]): 3
- Rice plant response rating (rice; [8]): 0
- Rice plant response rating (rice; [9]): 0
- Rice plant response rating (rice; [10]): 0
- Rice plant response rating (rice; [11]): 0
- Plant response rating, B. signalgrass (surinam grass; [1]): 0
- B. signalgrass plant response rating (surinam grass; [2]): 0
- B. signalgrass plant response rating (0 to 10 scale, 0 is no effect, 10 is complete control) (surinam grass; Preemergence, Rate 125 g/ha): 0
- B. signalgrass plant response rating (surinam grass; [3]): 3
- B. signalgrass plant response rating (surinam grass; [4]): 7
- B. signalgrass plant response rating (surinam grass; [5]): 0
- Plant response rating, B. signalgrass (surinam grass; [6]): 0
- Plant response rating, B. signalgrass (surinam grass; [7]): 0
- Plant response rating, Velvetleaf (velvetleaf; [1]): 0
- Velvetleaf plant response rating (velvetleaf; [2]): 0
- Velvetleaf plant response rating (0 to 10 scale) (velvetleaf; Preemergence, Rate 125 g/ha): 0
- Velvetleaf plant response rating (velvetleaf; [3]): 0
- Velvetleaf plant response rating (velvetleaf; [4]): 0
- Velvetleaf plant response rating (velvetleaf; [5]): 0
- Plant response rating, Velvetleaf (velvetleaf; [6]): 2
- Plant response rating, Velvetleaf (velvetleaf; [7]): 2
- Plant response rating, Wild oats (wild oat; [1]): 0
- Wild oats plant response rating (wild oat; [2]): 0
- Wild oats plant response rating (0 to 10 scale) (wild oat; Preemergence, Rate 125 g/ha): 1
- Wild oats plant response rating (wild oat; [3]): 3
- Wild oats plant response rating (wild oat; [4]): 3
- Wild oats plant response rating (wild oat; [5]): 0
- Plant response rating, Wild oats (wild oat; [6]): 0
- Plant response rating, Wild oats (wild oat; [7]): 0
- Plant response rating, Soybean (soybean; [1]): 5
- Soybean plant response rating (soybean; [2]): 0
- Soybean plant response rating (0 to 10 scale) (soybean; Preemergence, Rate 125 g/ha): 0
- Soybean plant response rating (soybean; [3]): 0
- Soybean plant response rating (soybean; [4]): 0
- Soybean plant response rating (soybean; [5]): 3
- Plant response rating, Soybean (soybean; [6]): 5
- Plant response rating, Soybean (soybean; [7]): 6
- Plant response rating, Redroot pigweed (pigweed; [1]): 4
- Redroot pigweed plant response rating (pigweed; [2]): 1
- Redroot pigweed plant response rating (0 to 10 scale) (pigweed; Preemergence, Rate 125 g/ha): 3
- Redroot pigweed plant response rating (pigweed; [3]): 6
- Redroot pigweed plant response rating (pigweed; [4]): 7
- Redroot pigweed plant response rating (pigweed; [5]): 3
- Plant response rating, Redroot pigweed (pigweed; [6]): 4
- Plant response rating, Redroot pigweed (pigweed; [7]): 7
- Plant response rating, Nutsedge (purple nutsedge; [1]): 0
- Nutsedge plant response rating (purple nutsedge; [2]): 0
- Nutsedge plant response rating (purple nutsedge; [3]): 0
- Nutsedge plant response rating (purple nutsedge; [4]): 0
- Nutsedge plant response rating (purple nutsedge; [5]): 0
- Plant response rating, Nutsedge (purple nutsedge; [6]): 0
- Plant response rating, Nutsedge (purple nutsedge; [7]): 0
- S. Flatsedge plant response rating (smallflower flatsedge; [8]): 0
- S. Flatsedge plant response rating (smallflower flatsedge; [9]): 0
- S. Flatsedge plant response rating (smallflower flatsedge; [10]): 0
- S. Flatsedge plant response rating (smallflower flatsedge; [11]): 0
- Plant response rating, Bedstraw (bedstraw; Rate 125 g/ha, scale 0 to 10, 0 is no effect, 10 is complete control): 5
- Plant response rating, Bedstraw (bedstraw; Rate 250 g/ha, scale of 0 to 10 where 0 is no effect and 10 is complete control): 7
